Three compounds from patent US12599584B2, “Indoline derivatives, compositions comprising them and uses thereof” (Yissum Research Development Company of The Hebrew …, priority 2016, dated 2026) can be followed below.

The subject of one experiment is Caspase 3. The experiment can be described thus: Caspase 3 activity in RAW macrophage 264.7 cells exposed to H2O2. The following applies: 1×10^−13M. It is filed as cell-based, mouse. As for the experimental part:
Oxidative stress can cause apoptosis, a form of cell suicide mediated by a cascade of proteolytic enzymes called caspases (cysteinyl aspartate-specific proteases). Caspase 3 is one of a number of effector caspases. Its activity was measured by means of a luminescent assay (Caspase-Glo 3/7 Assay Promega Ltd). […] The medium was aspirated 90 min later, 100 μL of DMEM was added to each well and the plates kept in an incubator overnight. Caspase-GloR Reagent (100 μL) was added to each well and the contents gently mixed using a plate shaker at 300-500 rpm for 30 sec. The plates were left at room temperature for 30 min and then luminescence of each sample was measured in a plate-reading luminometer (Cytation 3).

For experiment [1], the system named is TNF-α in human macrophages. Nature of the experiment: TNF-α in human macrophages after elevation by LPS (ELISA). It is filed as cell-based. On the procedure: Blood (20 ml was collected from healthy human subjects on the day of the experiment in anti-coagulant tubes and diluted in PBS 1:1. Ficol (12 mL) was added into the bottom of the tube, centrifuged slowly for 30 min at 1400 g and peripheral blood mononuclear cells (PBMCs) were separated. Monocytes were isolated by addition of 15 ml of MACS buffer. After centrifugation at 1400 g for 10 min at 4° C., the supernatant fluid was removed, monocytes were isolated by means of a MACS-Monocyte isolation kit (cat: 130-091-153) and incubated at 4-8° C. for 10 min Monocytes (500,000/well) were seeded in 12 multi well plate and cultured for 7 days in RPMI+L-Glutamin+FBS (10%) and PenStrep and h-MCSF (20 ng/mL) to convert them into macrophages. […] TNF-α, IL-1β and IL-6 protein were detected by means of the sandwich ELISA method using an ELISA kit for human cytokines (Biolegend, San Diego, CA, USA) according to the manufacturer's instructions.
For orientation: ELISA stands for enzyme-linked immunosorbent assay.

The subject of experiment [2] is IL-6 in human macrophages. The experiment can be described thus: IL-6 in human macrophages after elevation by LPS (ELISA). It is filed as cell-based. The following applies: 24 h after LPS; 1 × 10^−9 M. On the procedure: Blood (20 ml was collected from healthy human subjects on the day of the experiment in anti-coagulant tubes and diluted in PBS 1:1. Ficol (12 mL) was added into the bottom of the tube, centrifuged slowly for 30 min at 1400 g and peripheral blood mononuclear cells (PBMCs) were separated. Monocytes were isolated by addition of 15 ml of MACS buffer. After centrifugation at 1400 g for 10 min at 4° C., the supernatant fluid was removed, monocytes were isolated by means of a MACS-Monocyte isolation kit (cat: 130-091-153) and incubated at 4-8° C. for 10 min Monocytes (500,000/well) were seeded in 12 multi well plate and cultured for 7 days in RPMI+L-Glutamin+FBS (10%) and PenStrep and h-MCSF (20 ng/mL) to convert them into macrophages. Compounds (AN1284, AN1297, AN1298, 1×10^−10 or 1×10^−9 M) were added 2 h before LPS (100 μg/mL Sigma Ltd. phenol extracted from Escherichia coli 055: B5) and incubated at 37° C., 5% CO2. TNF-α, IL-1β and IL-6 protein were detected by means of the sandwich ELISA method using an ELISA kit for human cytokines (Biolegend, San Diego, CA, USA) according to the manufacturer's instructions.

The test system of the next experiment is LPS-injected mice. Nature of the experiment: Pro-inflammatory cytokine proteins in tissues of mice injected with LPS. It is filed as in vivo, mouse. The following applies: sc, 2-3 doses, 15 min before LPS 10 mg/kg ip; 4 h after LPS. On the procedure:
Male Balb/c OlaHsd mice (aged 7-8 weeks) were injected subcutaneously (sc) with saline, or with AN1279, AN1283, AN1284, AN1287 and AN1298 at doses that contain approximately the equivalent amount of the base. LPS (10 mg/kg) was given by intraperitoneal injection 15 min later. The mice were sacrificed 4 h later, which was previously shown to be the optimal time for elevation of cytokines in the spleen and brain. The spleen, brain and liver were rapidly removed and frozen in liquid nitrogen and stored at −80° C. until use. A piece of the cortex was taken for gene analysis of cytokines. Blood was collected into heparinized tubes and plasma separated by centrifugation. For measurement of cytokine protein, tissues were weighed and diluted in PBS containing 0.8% NaCl, 0.144% NaHPO4, 0.024% KH2PO4 and protease inhibitor cocktail (Sigma) and homogenised in an Ultra-TURRAX® homogeniser at a speed of 24,000 rpm and centrifuged at 14000 g for 15 min at 4° C. Cytokines were detected by means of Elisa kits (Biolegend) and protein concentration was determined by a bicinchoninic acid protein assay kit (Thermo Scientific, IL, USA).

In experiment [3] the test system is cerulein-induced mouse model. The experiment can be described thus: Acute pancreatitis, cerulein-induced mouse model. It is filed as in vivo. The following applies: for Serum amylase: 1 and 2 mg/kg sc 30 min after first cerulein injection, 4 hours; for TNF-α protein in the pancreas: 1 and 2 mg/kg sc, 4 hours after first cerulein injection. On the procedure: The most commonly used animal model for acute pancreatitis is the cerulein-induced mouse model (Su et al., 2006). Cerulein is a cholecystokinin analogue that produces hyperstimulation of the pancreatic acinar cells at supramaximal dosage. The acute necrotizing pancreatitis produced is histopathologically similar to acute human pancreatitis (Van Acker et at, 2007). Groups of 10 Balb/C male mice weighing 24 gm were injected intraperitoneally once every hour for 4 hours with cerulean (50 μg/kg) suspended in saline. AN1297 (1 or 2 mg/kg) or resolvin D (1 mg/kg) or saline that were injected sc. 30 min after the first cerulean injection. Mice were killed by exsanguination at 4 hours after the first cerulein injection. Blood samples or measurement of amylase were obtained by direct intracardiac puncture. Pancreases were removed immediately, flash frozen in liquid nitrogen and stored −80° C. until assayed, for TNF-α protein by means of the sandwich ELISA method using an ELISA kit (Biolegend, San Diego, CA, USA) according to the manufacturer's instructions. Serum amylase activity was determined using a colorimetric assay kit (ab102523, Abcam). The values of serum amylase activity are expressed as units per litre (U/l).

Setting [4] is: listed as AN1927, Hydrochloride.

Take `NCCCN1CCc2ccccc21` [AN1264, di-p-Toluenesulfonate]: in the experiment with Caspase 3, the “Reduction in caspase 3 activity compared with the other compounds” value is listed as “less reduction in caspase 3 activity than the other compounds”.

For the compound `COC(=O)CCN1CCc2ccc(OCc3ccccc3)cc21.Cc1ccc(S(=O)(=O)O)cc1` [AN1279, Methyl 3-(6-(Benzyloxy)indolin-1-yl)propanoate p-Toluenesulfonate], the “Reduction in caspase 3 activity compared with the other compounds” value with Caspase 3 is reported as “less reduction in caspase 3 activity than the other compounds”.

`COC(=O)CCN1CCc2cc(OC)ccc21.Cl` [AN1297, Methyl 3-(5-Methoxyindolin-1-yl)propanoate Hydrochloride]: the “Reduction (%) ± STD compared to LPS alone, TNF-α” value in experiment [1] (6 h after LPS, 1 × 10^−9 M) is reported as 55.7 ± 11.5%; in experiment [1] (12 h after LPS, 1 × 10^−10 M) it was 25.1 ± 10.9%; in experiment [1] (12 h after LPS, 1 × 10^−11 M), 22.0 ± 7.2%; in experiment [1] (24 h after LPS, 1 × 10^−9 M) it was 71.1 ± 8.9%. In addition, the “Reduction (%) ± STD compared to LPS alone, IL-6” value in experiment [2] is 62.4 ± 16.5%. Moreover, the “IL-6 protein in the brain” value with LPS-injected mice is reported as “reduction”. Besides, in the experiment on LPS-injected mice, the “IL-6 protein in the liver” value is on record as “reduction”. In addition, the Serum amylase result in experiment [3] (Hydrochloride) is on record as “decreased significantly”; in experiment [3] (setting [4]), “Dose related reduction”. In addition, the “TNF-α protein in the pancreas” value in experiment [3] (Hydrochloride) is on record as “dose-dependently reduced”; in experiment [3] (setting [4]) it was “Dose related reduction”.
